Assay results taken from ChEMBL document CHEMBL1201862, “PubChem BioAssay data set” (2004).
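Each compound was tested at five concentrations against cells in 96-well plates for 48 hours. The concentration for 50% growth inhibition is given as GI50.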 Active and inactive are the calls of the source. Rule as the data show it: active = GI50 up to about 1.1 µM and inactive = higher.

Experiments:
Test in all cases: inhibition of tumour cell growth, NCI panel, 48 h
A549 = system: A549
BT-549 = system: BT-549
CAKI-1 = system: CAKI-1
EKVX = system: EKVX
HCT-15 = system: HCT-15
HL-60 = system: HL-60
HT-29 = system: HT-29
IGROV-1 = system: IGROV-1
MDA-MB-231 = system: MDA-MB-231
NCI-H226 = system: NCI-H226
NCI-H460 = system: NCI-H460
OVCAR-4 = system: OVCAR-4
OVCAR-8 = system: OVCAR-8
RXF 393 = system: RXF 393
SK-MEL-28 = system: SK-MEL-28
SK-MEL-5 = system: SK-MEL-5
SN12C = system: SN12C
TK-10 = system: TK-10
UACC-62 = system: UACC-62
SR = system: SR

SMILES | GI50 (A549) | GI50 (BT-549) | GI50 (CAKI-1) | GI50 (EKVX) | GI50 (HCT-15) [µM] | GI50 (HL-60) | GI50 (HT-29) | GI50 (IGROV-1) | GI50 (MDA-MB-231) | GI50 (NCI-H226) | GI50 (NCI-H460) | GI50 (OVCAR-4) | GI50 (OVCAR-8) | GI50 (RXF 393) | GI50 (SK-MEL-28) | GI50 (SK-MEL-5) | GI50 (SN12C) | GI50 (TK-10) | GI50 (UACC-62) | GI50 (SR)
O=C(CCc1ccccc1)On1c(-c2ccccc2)nc2ccccc2c1=S | 3.65 µM (inactive) | 14.5 µM (inactive) | 5.68 µM (inactive) | 6.78 µM (inactive) | 2.32 | 3.05 µM (inactive) | 3.85 µM (inactive) | 0.515 µM (active) | 51.5 µM (inactive) | 5.62 µM (inactive) | 1.35 µM (inactive) | 2.9 µM (inactive) | 4.44 µM (inactive) | 18.6 µM (inactive) | 16.1 µM (inactive) | 4.47 µM (inactive) | 11.9 µM (inactive) | 18.9 µM (inactive) | 3.94 µM (inactive) | 
CCCC(=O)N/S(=N/S(=O)(=O)c1ccc(Cl)cc1)C(Cl)(Cl)Cl (configuration not stated) | > 100 µM (inactive) | > 100 µM (inactive) |  | > 100 µM (inactive) | > 100 | > 100 µM (inactive) | > 100 µM (inactive) | > 100 µM (inactive) | > 100 µM (inactive) | > 100 µM (inactive) | > 100 µM (inactive) |  | > 100 µM (inactive) | > 100 µM (inactive) | > 100 µM (inactive) | > 100 µM (inactive) | > 100 µM (inactive) | > 100 µM (inactive) | > 100 µM (inactive) | > 100 µM (inactive)
O=S1(=O)OCCOS(=O)(=O)C1Cc1nc2ccccc2[nH]1 | 44.6 µM (inactive) | > 10 µM (inactive) | 27 µM (inactive) | > 100 µM (inactive) | 26 | 22.5 µM (inactive) | 51.2 µM (inactive) |  | 43 µM (inactive) |  | 28.2 µM (inactive) | 44.2 µM (inactive) | 55.6 µM (inactive) |  | 97.1 µM (inactive) | 34.7 µM (inactive) | 35.2 µM (inactive) | > 100 µM (inactive) |  | 28.6 µM (inactive)
c1ccc(N/N=N/c2ccc(-c3nc4ccccc4o3)cc2)nc1 | 46.7 µM (inactive) | 28.8 µM (inactive) |  | 29.9 µM (inactive) | 33.7 | 13.7 µM (inactive) | 42.8 µM (inactive) | 28.6 µM (inactive) | 36.6 µM (inactive) |  | 30.5 µM (inactive) | 36 µM (inactive) | 35.8 µM (inactive) |  | 61.5 µM (inactive) | 16.2 µM (inactive) | 56.6 µM (inactive) | 37.4 µM (inactive) | 40.8 µM (inactive) | 38.5 µM (inactive)
O=C(CC(=O)n1nc(-c2ccccc2)c(/N=N/c2ccccc2C(=O)O)c1-c1ccccc1)Nc1ccc(Cl)cc1 | 34.1 µM (inactive) | 24.7 µM (inactive) |  | 30.7 µM (inactive) | 26.9 | 10.2 µM (inactive) | 34.2 µM (inactive) | 1.5 µM (inactive) | 33.3 µM (inactive) | 30.6 µM (inactive) | 19.2 µM (inactive) |  | 36.8 µM (inactive) | 7.66 µM (inactive) | 52.8 µM (inactive) | 42 µM (inactive) |  | > 100 µM (inactive) | 77.1 µM (inactive) | 11.6 µM (inactive)
O=C(O)/C(=C\c1ccccc1)Cc1ccccc1 | > 100 µM (inactive) | > 100 µM (inactive) | > 100 µM (inactive) | > 100 µM (inactive) | > 100 | > 100 µM (inactive) | > 100 µM (inactive) | > 100 µM (inactive) | > 100 µM (inactive) | > 100 µM (inactive) | > 100 µM (inactive) | > 100 µM (inactive) | > 100 µM (inactive) | > 100 µM (inactive) | > 100 µM (inactive) | > 100 µM (inactive) | > 100 µM (inactive) | > 100 µM (inactive) | > 100 µM (inactive) | 
COCOc1cc(OC)ccc1C/C(=N/O)C(=O)OC | > 100 µM (inactive) | > 100 µM (inactive) | > 100 µM (inactive) | > 100 µM (inactive) | > 100 | > 100 µM (inactive) | > 100 µM (inactive) | > 100 µM (inactive) | > 100 µM (inactive) | > 100 µM (inactive) | > 100 µM (inactive) | > 100 µM (inactive) | > 100 µM (inactive) | > 100 µM (inactive) | > 100 µM (inactive) | > 100 µM (inactive) | > 100 µM (inactive) | > 100 µM (inactive) | > 100 µM (inactive) | 
CC(C)(C)OC(=O)N1CCC(C(=O)O)CC1 | > 100 µM (inactive) | > 100 µM (inactive) | > 100 µM (inactive) | > 100 µM (inactive) | > 100 | > 100 µM (inactive) | > 100 µM (inactive) | > 100 µM (inactive) | > 100 µM (inactive) |  | > 100 µM (inactive) | > 100 µM (inactive) | > 100 µM (inactive) |  | > 100 µM (inactive) | > 100 µM (inactive) | > 100 µM (inactive) | > 100 µM (inactive) | > 100 µM (inactive) | > 100 µM (inactive)
COC(=O)[C@@H]1O[C@]12C(CO[Si](C)(C)C(C)(C)C)OC(n1ccc(=O)[nH]c1=O)C2O[Si](C)(C)C(C)(C)C (some centres not stated) | 32.7 µM (inactive) | 17.5 µM (inactive) | 19.7 µM (inactive) | 25.9 µM (inactive) | 28.3 | 10.1 µM (inactive) | 7.93 µM (inactive) | 17.7 µM (inactive) | 28.2 µM (inactive) | 0.435 µM (active) | 15.5 µM (inactive) | 45.7 µM (inactive) | 30.9 µM (inactive) |  | 25.5 µM (inactive) | 19.6 µM (inactive) | 30.6 µM (inactive) | 27.1 µM (inactive) | 24.2 µM (inactive) | > 10 µM (inactive)
COc1cc(C(=O)N(C(=O)N2CCCCC2)c2ccccc2)cc(OC)c1OC | > 100 µM (inactive) | > 100 µM (inactive) | > 100 µM (inactive) | > 100 µM (inactive) | > 100 |  |  | > 100 µM (inactive) | > 100 µM (inactive) | > 100 µM (inactive) | > 100 µM (inactive) |  | > 100 µM (inactive) |  | > 100 µM (inactive) | > 100 µM (inactive) | > 100 µM (inactive) |  | > 100 µM (inactive) | > 100 µM (inactive)
CC(=O)Nc1ccc(NCC(=O)Nn2cnc3ccc(S(=O)(=O)Nc4ccc(NC(C)=O)cc4)cc3c2=O)cc1 | > 100 µM (inactive) | > 100 µM (inactive) | > 100 µM (inactive) | > 100 µM (inactive) | > 100 | > 100 µM (inactive) | > 100 µM (inactive) | > 100 µM (inactive) | > 100 µM (inactive) | > 100 µM (inactive) | > 100 µM (inactive) | > 100 µM (inactive) | > 100 µM (inactive) |  | > 100 µM (inactive) |  | > 100 µM (inactive) | > 100 µM (inactive) | > 100 µM (inactive) | > 100 µM (inactive)
COc1ccc(-n2cnc3c(NC(C)(C)C(=O)O)ncnc32)cc1 | > 100 µM (inactive) | > 100 µM (inactive) | > 100 µM (inactive) | 84.9 µM (inactive) | > 100 |  | > 100 µM (inactive) | > 100 µM (inactive) | > 100 µM (inactive) | > 100 µM (inactive) | > 100 µM (inactive) | > 100 µM (inactive) | > 100 µM (inactive) |  | > 100 µM (inactive) | > 100 µM (inactive) | > 100 µM (inactive) | > 100 µM (inactive) | > 100 µM (inactive) | > 100 µM (inactive)
COC(=O)C(Cc1ccc(Oc2cc(CC(NC(=O)c3ccccc3)C(=O)OC)ccc2OC)cc1)NC(=O)c1ccccc1 (configuration not stated) | 25.7 µM (inactive) | 26.7 µM (inactive) | 54.8 µM (inactive) | 29.8 µM (inactive) | 28.7 | 3.82 µM (inactive) | 26.6 µM (inactive) | 6.3 µM (inactive) | 21.9 µM (inactive) | 27.5 µM (inactive) | 22.8 µM (inactive) | 26.4 µM (inactive) | 10.7 µM (inactive) | 14.7 µM (inactive) | 8.49 µM (inactive) | 18.2 µM (inactive) | 6.64 µM (inactive) | 7.53 µM (inactive) | 17.9 µM (inactive) | 
CCCCn1c(C)c(C)c2c1NN=C(C#N)S2(=O)=O | > 100 µM (inactive) | > 100 µM (inactive) |  | > 100 µM (inactive) | > 100 |  | > 100 µM (inactive) | > 100 µM (inactive) | > 100 µM (inactive) |  | > 100 µM (inactive) | > 100 µM (inactive) | > 100 µM (inactive) |  | > 100 µM (inactive) | > 100 µM (inactive) | > 100 µM (inactive) | > 100 µM (inactive) | > 100 µM (inactive) | 75 µM (inactive)
CCCCCCCC/C=C\CCCCCCCC(=O)OC[C@]1(CO)CCC(=O)O1 | > 100 µM (inactive) | > 100 µM (inactive) | > 100 µM (inactive) | > 100 µM (inactive) | > 100 |  | > 100 µM (inactive) | > 100 µM (inactive) | > 100 µM (inactive) | > 100 µM (inactive) | > 100 µM (inactive) | > 100 µM (inactive) | > 100 µM (inactive) | > 100 µM (inactive) | > 100 µM (inactive) | > 100 µM (inactive) | > 100 µM (inactive) | > 100 µM (inactive) | > 100 µM (inactive) | > 100 µM (inactive)
